Measurements published in patent publication US4239747A, “Dicarboxylic acid bis(3,5-dicarbamoyl-2,4,6-triiodoanilides) useful as x-ray contrast agents” (Schering Aktiengesellschaft, priority 1976, dated 1980).
Values after ≈ are worked out from the molar mass of the structure shown. Like-named read-outs stand apart in the source and are kept apart here.

Legend:
rats = format: in vivo; conditions: 10 rats; 50 mg. iodine/ml.; 0.4 ml./kg.
Description: In a further evaluation according to Valzelli, "A Simple Method to Inject Drugs Intracerebrally;" Med. Exp. Vol. 11: 23-26, (1964), each of 10 rats (90-110 g.) were injected intracerebrally with contrast medium solutions of compounds A-E at an iodine concentration of 50 mg./ml. in a dosage of 0.4 ml./kg. Toxic effects of compounds A-D included grave anomalies in posture (attitude), torsional spasms, excitation, and death.

[1] = Osmotic pressure and osmolality of solutions of identical iodine concentration (300 mg. Iodine/ml.); format: physicochemical; conditions: at 37° C.
Text: The novel compounds are distinguished from other compounds by a lower diffusibility on account of their size.
Concentration, Osmotic Pressure, and Osmolality of Solutions of Identical

Solubility in water = format: physicochemical; conditions: for solubility: water
mice [2] = test: Compatibility after intravenous injection in mice; format: in vivo; conditions: for Mortality/survival after intravenous injection: 6-10 mice, 10 g. iodine/kg, 300 mg. iodine/ml., 0.8 ml./min.
Description: 1. Compatibility After Intravenous Injection
Each of 6-10 mice weighing 20-22 g. was injected intravenously with the contrast medium being tested in the form of a solution at a concentration of 300 mg. of iodine/ml., a dosage of 10 g. iodine/kg. and an injection rate of 0.8 ml./min. Ionic agents were given as meglumine salts.

erythrocytes = test: Effect of the contrast media on erythrocyte morphology; conditions: 43 mg. Iodine/ml. Blood; score 0 (intact) to 5 (highest damage)
Description: Contrast medium solutions containing 300 mg. iodine/ml. were mixed in a ratio of 1:6 with heparinized blood. The final concentration of the contrast media was 43 mg. iodine/ml. The evaluation criterion was the change of the natural shape of the erythrocytes via echinocytes to spherocytes.

mice [3] = test: Compatibility after intravenous injection in mice; format: in vivo
proteins of human plasma = test: Protein binding, human plasma (ultrafiltration method); format: in vitro ADME; conditions: n = 6; 1.2 mg. Iodine/ml.; ultrafiltration
Description: (§1) Binding of contrast media to proteins of human plasma was determined at a final plasma concentration of 1.2 mg. iodine/ml. using the ultrafiltration method. The novel, nonionic dimer E was bound only to a very minor extent of 1.4±2.4%.

[4] = as above; format: in vitro ADME; conditions: human, plasma
Description: as §1

[5] = background statement; cited from earlier work
[6] = background statement; cited from earlier work; remark: listed apart in the source
[7] = n = 6, 1.2 mg. Iodine/ml., ultrafiltration, read-out: Protein Binding Human Plasma (converted)

SMILES | Osmolality [1] | Osmotic Pressure [1] | Effect on Erythrocyte Morphology, Damage Index (erythrocytes) | Compatibility After i.v. Injection in Mice, LD50 (mice [3]) | fraction unbound [4, 7] | solubility (Solubility in water) | further results
CN(CC(O)CO)C(=O)c1c(I)c(NC(=O)C(=O)Nc2c(I)c(C(=O)N(C)CC(O)CO)c(I)c(C(=O)N(C)CC(O)CO)c2I)c(I)c(C(=O)N(C)CC(O)CO)c1I (stereo not drawn) [Example 1, oxalic acid bis[3,5-bis(2,3-dihydroxypropyl-N-methylcarbamoyl)-2,4,6-triiodoanilide]] | 175 mOsm/kg . H2 O | 4.5 at. | 0.33 | 20 g. Iodine/kg. | 0.986 |  | Toxic effects after intracerebral injection (rats): caused none of these effects in any of the animals; solubility (Solubility in water; room temperature): > 600 mg/mL; Mortality/survival after intravenous injection (mice [2]): All mice survived; Protein Binding Human Plasma (proteins of human plasma): 1.4±2.4%
CN(CC(O)CO)C(=O)c1c(I)c(C(=O)N(C)CC(O)CO)c(I)c(N(C)C(=O)COCC(=O)N(C)c2c(I)c(C(=O)N(C)CC(O)CO)c(I)c(C(=O)N(C)CC(O)CO)c2I)c1I (stereo not drawn) [Example 8, Oxaglutaric Acid bis[3,5-bis(2,3-Dihydroxypropyl-N-methylcarbamoyl)-2,4,6-triiodo-N-methylanilide]] |  |  | 0.09 | 10 g. Iodine/kg. |  | > 600 mg/mL | 
CN(CC(O)CO)C(=O)c1c(I)c(C(=O)N(C)CC(O)CO)c(I)c(N(C)C(=O)CC(=O)N(C)c2c(I)c(C(=O)N(C)CC(O)CO)c(I)c(C(=O)N(C)CC(O)CO)c2I)c1I (stereo not drawn) [Example 9, Malonic Acid bis[3,5-bis(2,3-Dihydroxypropyl-N-methylcarbamoyl)-2,4,6-triiodo-N-methylanilide]] | 197 mOsm/kg . H2 O | 5.0 at. |  |  |  |  | Solubility in water (Solubility in water): more than 60 g./150 ml. of solution
CN(CC(O)CO)C(=O)c1c(I)c(NC(=O)CCCCC(=O)Nc2c(I)c(C(=O)N(C)CC(O)CO)c(I)c(C(=O)N(C)CC(O)CO)c2I)c(I)c(C(=O)N(C)CC(O)CO)c1I (stereo not drawn) [Example 10, Adipic Acid bis[3,5-bis(2,3-Dihydroxypropyl-N-methylcarbamoyl)-2,4,6-triiodoanilide]] |  |  | 0.11 |  |  | 130 mg/mL (≈ 82.5 mM) | Solubility behaviour in words (Solubility in water): yields supersaturated solutions; Compatibility After i.v. Injection in Mice, LD50 (mice [2]; i.v., mice, determined with supersaturated solution): 30 g. Iodine/kg.
O=C(CCCCC(=O)Nc1c(I)c(C(=O)NC(CO)CO)c(I)c(C(=O)NC(CO)CO)c1I)Nc1c(I)c(C(=O)NC(CO)CO)c(I)c(C(=O)NC(CO)CO)c1I [Example 11, Adipic Acid bis[3,5-bis(1,3-Dihydroxyisopropylcarbamoyl)-2,4,6-triiodoanilide]] |  |  |  |  |  | < 1 mg/mL | 
CN(CC(O)CO)C(=O)c1c(I)c(NC(=O)COCCOCC(=O)Nc2c(I)c(C(=O)N(C)CC(O)CO)c(I)c(C(=O)N(C)CC(O)CO)c2I)c(I)c(C(=O)N(C)CC(O)CO)c1I (stereo not drawn) [Example 12, 3,6-Dioxasuberic Acid bis[3,5-bis(2,3-Dihydroxypropyl-N-methylcarbamoyl)-2,4,6-triiodoanilide]] | 216 mOsm/kg . H2 O | 5.5 at. | 0.13 | 22 g. Iodine/kg. |  |  | 
CC(=O)Nc1c(I)c(NC(C)=O)c(I)c(C(=O)O)c1I [Meglumine Amidotrizoate] | 1520 mOsm/kg . H2 O | 38.6 at. | 2.57 | 6.5 g. Iodine/kg. | 0.968 |  | 
CNC(=O)c1c(I)c(NC(=O)CCCCC(=O)Nc2c(I)c(C(=O)O)c(I)c(C(=O)NC)c2I)c(I)c(C(=O)O)c1I [Meglumine Iocarmate] | 1260 mOsm/kg . H2 O | 32.0 at. | 1.37 | 6.5 g. Iodine/kg. | 0.908 |  | Resulting concentration in the urine [5]: relatively high resulting concentration in the urine; Osmotic pressure, relative [6]: somewhat lower osmotic pressure
CNC(=O)c1c(I)c(NC(C)=O)c(I)c(C(=O)O)c1I [Meglumine Iothalamate] | 1650 mOsm/kg . H2 O | 41.9 at. |  | 6.5 g. Iodine/kg. |  |  | fraction unbound [4]: 0.948
CC(=O)Nc1c(I)c(C(=O)N[C@H]2C(O)O[C@H](CO)[C@@H](O)[C@@H]2O)c(I)c(N(C)C(C)=O)c1I (stereo partly drawn) [Metrizamide, 2-(3-acetamido-5-N-methylacetamido-2,4,6-triiodobenzamido)-2-deoxy-D-glucose] | 485 mOsm/kg . H2 O | 12.3 at. |  | 14 g. Iodine/kg. |  |  | Mortality/survival after intravenous injection (mice [2]): one animal died; fraction unbound [4]: 0.938
